Experimental data: publication PMC11930985 (Nature Communications, 2025)
Converted amounts (≈) assume the structure as drawn. “And” between values parts separate entries of the source, which are not always exact repeats. Identical values can stand only once.

What was measured:
pS6 S235/S236 = assay: CyTOF maximal inhibition in Undefined/Immature Myeloid cells: pS6; assay type: in vivo; details: Homo sapiens, N = 12 patients, read-out: EC50 (± standard error), pS6 S235/S236 inhibition
Text: (§1) Pharmacodynamic endpoints included the measurement of inhibition of pAXL, pERK, pAKT, pS6 and pSTAT1/3/5 in blast cells (defined as cells with abnormal surface marker expression as compared to healthy donor peripheral blood mononuclear cells and undefined/immature myeloid cells (defined as cells carrying myeloid markers but lacking distinguishing terminal differentiation markers). Mass cytometry time of flight (CyTOF) was used for the determination of the pharmacodynamic markers using a previously validated and tested panel of mass-tagged antibodies[39],[40]. The antibodies in the panel are listed in Supplementary Table 5. Briefly, fixed leukocytes from peripheral blood were barcoded using a 20-plex metal barcoding kit (Standard Biotools, Cell-ID 201060) according to manufacturer’s protocol, allowing all the samples from a single individual to be stained and analysed in parallel. All analysis runs included barcoded peripheral blood mononuclear cells (PBMCs) from at least one healthy donor and an identical barcoded reference sample (mix of PBMCs from six healthy donors). […]
(§2) For each population, marker, and sample, the 95th percentile of the non-transformed expression values was calculated. […]

pERK1/2 T202/Y204 = assay: CyTOF maximal inhibition in Undefined/Immature Myeloid cells: pERK1/2; assay type: in vivo, human
Text: as §1, §2

Tie2 = biological target: Tie2; parameters: method as in Investigator's Brochure (IB) version 5.0; details: ref Investigator's Brochure (IB) version 5.0; cited from earlier work
Flt4 = biological target: Flt4; parameters: method as in Investigator's Brochure (IB) version 5.0; details: ref Investigator's Brochure (IB) version 5.0; cited from earlier work

SMILES: Nc1nc(Nc2ccc3c(c2)CC[C@@H](N2CCCC2)CC3)nn1-c1cc2c(nn1)-c1ccccc1CCC2 [Bemcentinib]
- EC50 (pS6 S235/S236): 0.1187 ± 0.0011 µg/mL (≈ 0.234 µM)
- EC50 (pERK1/2 T202/Y204; Homo sapiens, Undefined/Immature Myeloid cells, N = 12 patients, read-out: EC50 (± standard error), pERK1/2 T202/Y204 inhibition): 0.0873 ± 0.0017 µg/mL (≈ 0.172 µM)
- Maximum inhibition (percent) pERK1/2 (T202/Y204) (pERK1/2 T202/Y204; Supplementary Figure 1c, individual patients): 87.1% and 71.6% and 100% and 8.8% and 98.1% and 30.4% and 66.9% and 0% and 5.7% and 94.5% and 39.2% and 69.3%
- Kd (Tie2): 270 nM
- Kd (Flt4): 460 nM
